Data on 1 compound can be found in patent publication US9114171B2, “Racecadotril liquid compositions” (McNeil-PPC, Inc., priority 2012, dated 2015).

Assay type in all cases: physicochemical
Data set [1] can be described thus: Stability of Racecadotril in Buffer. On the procedure: (§1) For comparative purposes, the stability of racecadotril was analyzed when solubilized in pH 4.5 Acetate buffer and pH 4.5 Citrate buffer (Table 4). Test Methods Sample Preparation: • 1. Pipet 1 mL of Racecadotril solution into a 100 mL volumetric flask (V.F.) • 2. Dilute to volume with the same buffer used in the solution preparation. • 3. Further dilute the sample solution to about 0.1 mg/mL if necessary. […] Parameters may be modified to optimize chromatography. • The assay of Racecadotril is determined by using the external standard injected. The degradation products levels are determined by % peak area relative to the Racecadotril peak. Chromatographic Conditions (European Pharmacopoeia Racecadotril Method): […]

The nature of data set [2]: Stability of Racecadotril in Water. To be noted: room temperature and 40° C. On the procedure:
as §1, with “tested at room temperature” for “analyzed when solubilized in pH 4.5 Acetate buffer”, “at 40° C.” for “pH 4.5 Citrate buffer (Table 4).”

A short description of data set [3]: Stability of Racecadotril in Beta-Hydroxypropyl-Cyclodextrin (Beta-HPCD), Table 5. The protocol: Formulations of racecadotril in beta-hydroxypropyl-cyclodextrin were evaluated (Table 5).
Test Methods Sample Preparation: • 1. Pipet 1 mL of Racecadotril solution into a 100 mL volumetric flask (V.F.) • 2. Dilute to volume with the same buffer used in the solution preparation. • 3. Further dilute the sample solution to about 0.1 mg/mL if necessary. […] Parameters may be modified to optimize chromatography. • The assay of Racecadotril is determined by using the external standard injected. The degradation products levels are determined by % peak area relative to the Racecadotril peak. Chromatographic Conditions (European Pharmacopoeia Racecadotril Method): […]

As to `CC(=O)SCC(Cc1ccccc1)C(=O)NCC(=O)OCc1ccccc1` (racemic) [Racecadotril], in data set [1], the “solubility in buffer versus water” value is given as “more soluble in buffer than in water”. The “stability in buffer versus water” value in data set [1] (40° C. and 4 weeks) was “more stable in a buffer than in water”. Further, the racecadotril present entry in data set [2] (in water, at 1 week) is “less than 1%”. Besides, the stability in water result in data set [2] is listed as “unstable after 12 hours”. For the same compound, the “solubility utilizing Beta-HPCD” value in data set [3] is on record as “higher solubility was achieved utilizing the Beta-HPCD”. Further, in data set [3] (40° C.), the “stability in Beta-HPCD versus buffers alone” value is on record as “stability is similar to that in buffers alone”.
